Literature values, collected in paper PMC9633261, “Preclinical evaluation and first in human study of Al^18F radiolabeled ODAP-urea-based PSMA targeting ligand for PET imaging of prostate cancer” (Frontiers in Oncology, 2022).
Where two headings read alike, the source gives them in different places.

absorbed dose kidneys (ref [39])	absorbed dose kidneys (reported by Afshar-Oromieh et al. ref [37])	absorbed dose kidneys (reported by Pfob et al. ref [38])	Structure (SMILES)
0.0945 mGy/MBq	–	–	O=C(O)CC[C@H](NC(=O)N[C@@H](CCCCNC(=O)c1ccc([18F])nc1)C(=O)O)C(=O)O [^18F-DCFPyL]
–	0.262 mGy/MBq	0.121 mGy/MBq	O=C([O-])CN(CCN(CC(=O)[O-])Cc1cc(CCC(=O)NCCCCCC(=O)NCCCC[C@H](NC(=O)N[C@@H](CCC(=O)O)C(=O)O)C(=O)O)ccc1[O-])Cc1cc(CCC(=O)O)ccc1[O-].[68Ga+3].[OH3+] [^68Ga-PSMA-11]
